For one test, the system named is LN229 cells. Put plainly: Cell viability assay, LN229 cells. The test is classed as cell-based, human. Conditions: Homo sapiens, LN-229, LN229 cells, read-out: Inhibition of Cancer Cell Growth (IC50). On the procedure:
Each of the compounds was used to treat the cancer LN229 cells and examined first by western and dot blot assays for the degradation of SUMO1 protein and then by cell viability assay for the IC50 values of anticancer activity.
LN229 cell were treated with a series of dilutions of CPD1 and examined by cell viability assay for cell growth inhibition (FIG. 2B). […] Therefore, CPD1 acts as the degrader of SUMO1 protein and inhibitor of SUMO1 conjugation in cancer cells.
On to `N#Cc1cccc(NC(=O)Nc2nc3ccc(C(=O)N4CCOCC4)cc3s2)c1` [Compound 60], for which the IC50 was over 20 µM.

On to `O=C(Nc1nc2ccc([N+](=O)[O-])cc2s1)c1ccc(F)cc1` [Compound 25], for which the IC50 is over 20 µM.

With `Cn1ncc2ccc(NC(=O)Nc3nc4ccc(C#N)cc4s3)cc21` [Compound 111], the IC50 was over 20 µM.

On to `N#Cc1ccc(Cl)c(NC(=O)Nc2nc3ccc(Cl)cc3s2)c1` [Compound 86], for which the IC50 was at most 5 µM.

Take `CC(C)(C)OC(=O)N[C@@H]1CCc2nc(NC(=O)Nc3cccc(C#N)c3)sc2C1` [Compound 62]: the IC50 is at most 5 µM.

Regarding `CN(C(=O)Nc1nc2ccc(C#N)cc2s1)c1ccccc1` [Compound 76], the IC50 was over 20 µM.

Consider `N#Cc1ccc2nc(NC(=O)Nc3cccc([N+](=O)[O-])c3)sc2c1` [Compound 23], for which the IC50 is at most 5 µM.

As to `N#Cc1ccc(NC(=O)Nc2nc3ccc(Cl)cc3s2)cc1F` [Compound 107], the IC50 was at most 5 µM.

In the case of `N#Cc1cccc(NC(=O)Nc2nc3c(s2)CC(C(N)=O)CC3)c1` (stereo not shown) [Compound 89], the IC50 is over 20 µM.

In the case of `O=C(Nc1ccc(Cl)cc1)Nc1nc2cccc([N+](=O)[O-])c2s1` [Compound 15], the IC50 is over 20 µM.

Consider `O=C(Nc1nc2cccc([N+](=O)[O-])c2s1)Nc1ccc(Cl)cc1F` [Compound 16], for which the half-inhibitory concentration (IC50) is over 20 µM.

`CN1CCN(c2cccc(NC(=O)Nc3nc4ccc(C#N)cc4s3)c2)CC1` [Compound 83]: the 50% inhibitory concentration (IC50) is at most 5 µM.

Turning to `CCOC(=O)C1CCc2nc(NC(=O)Nc3cccc(Cl)c3)sc2C1` (stereo not shown) [Compound 80], the IC50 is over 20 µM.

Turning to `N#Cc1cc(NC(=O)Nc2nc3ccc(Cl)cc3s2)ccc1F` [Compound 92], the IC50 is at most 5 µM.

For the molecule `O=C(Cc1ccc(Cl)cc1)Nc1nc2ccc([N+](=O)[O-])cc2s1` [Compound 26, 2-(4-chlorophenyl)-N-(6-nitro-1,3-benzothiazol-2-yl)acetamide], the IC50 is at most 20 µM.

As for `N#Cc1ccc2nc(NC(=O)Nc3ccc(Br)cc3)sc2c1` [Compound 36], the concentration for half-maximal inhibition (IC50) was at most 5 µM.

In the case of `CC(=O)N1CCc2nc(NC(=O)Nc3cccc(C#N)c3)sc2C1` [Compound 65], the IC50 was over 20 µM.

Consider `COc1cncc(NC(=O)Nc2nc3ccc(C#N)cc3s2)c1` [Compound 81], for which the concentration for half-maximal inhibition (IC50) was over 20 µM.

For the molecule `N#Cc1cccc(NC(=O)Nc2nc3c(s2)COCC3)c1` [Compound 58], the IC50 was at most 20 µM.

On to `N#Cc1c(F)ccc(NC(=O)Nc2nc3ccc(Cl)cc3s2)c1F` [Compound 122], for which the IC50 is at most 5 µM.

On to `Cc1ccc2nc(NC(=O)Nc3cccc(C#N)c3)sc2c1` [Compound 44], for which the IC50 is over 20 µM.

As for `N#CC1CCc2nc(NC(=O)Nc3cccc(Cl)c3)sc2C1` (stereo not shown) [Compound 97], the concentration for half-maximal inhibition (IC50) was at most 20 µM.

Consider `NC(=O)C1CCc2nc(NC(=O)Nc3cccc(Cl)c3)sc2C1` (stereo not shown) [Compound 90, 2-[(3-chlorophenyl)carbamoylamino]-4,5,6,7-tetrahydro-1,3-benzothiazole-6-carboxamide], for which the IC50 was over 20 µM.

As for `Cc1ccc(C(C)C(=O)Nc2nc3ccc(C#N)cc3s2)cc1` (stereo not shown) [Compound 55], the IC50 was at most 20 µM.

On to `CN1CCc2nc(NC(=O)Nc3cccc(C#N)c3)sc2C1` [Compound 52], for which the IC50 is over 20 µM.

`N#Cc1cc(Cl)cc(NC(=O)Nc2nc3ccc(Cl)cc3s2)c1` [Compound 93]: the IC50 was at most 5 µM.

In the case of `COc1ccc(-c2cccc(NC(=O)Nc3nc4ccc(C#N)cc4s3)c2)cc1` [Compound 33], the IC50 is at most 5 µM.

Consider `N#Cc1ccc2nc(NC(=O)Nc3cc(Cl)cc(Cl)c3)sc2c1` [Compound 37], for which the half-maximal inhibitory concentration (IC50) is at most 5 µM.

With `O=C(Nc1cccc(Cl)c1)Nc1nc2ccc(Br)cc2s1` [Compound 21], the IC50 was over 20 µM.

Take `N#Cc1ccc2nc(NC(=O)Nc3ccnc(Cl)c3)sc2c1` [Compound 99]: the IC50 is at most 5 µM.

Turning to `O=C(Nc1cccc([N+](=O)[O-])c1)Nc1nc2ccc(Cl)cc2s1` [Compound 4], the half-maximal inhibitory concentration (IC50) is at most 5 µM.

Consider `N#Cc1cccc(NC(=O)NC2Cc3ccccc3C2)c1` [Compound 46], for which the IC50 is over 20 µM.

Consider `Cc1ccc(-c2cccc(NC(=O)Nc3nc4ccc(C#N)cc4s3)c2)cc1` [Compound 34], for which the IC50 was at most 5 µM.

Regarding `O=C(Nc1cccc(C(=O)O)c1)Nc1nc2ccc([N+](=O)[O-])cc2s1` [Compound 27], the IC50 is over 20 µM.

Take `N#Cc1ccc(NC(=O)Nc2nc3ccc(Cl)cc3s2)c(F)c1` [Compound 123]: the IC50 was at most 20 µM.

For `N#Cc1cccc(NC(=O)N2CCc3ccccc3C2)c1` [Compound 47], the IC50 is over 20 µM.

In the case of `O=C(Nc1ccc(Cl)cc1)Nc1nc2ccccc2s1` [Compound 7], the IC50 is over 20 µM.

In the case of `O=C(Nc1ccccc1)Nc1nc2ccccc2s1` [Compound 11], the IC50 was over 20 µM.

Turning to `CC(C)(C)c1ccc(NC(=O)Nc2nc3ccc(C#N)cc3s2)cc1` [Compound 40], the IC50 is over 20 µM.

Take `CN(C)C(=O)c1ccc2nc(NC(=O)Nc3cccc(C#N)c3)sc2c1` [Compound 64]: the IC50 was over 20 µM.

With `N#Cc1cccc(NC(=O)Nc2nc3ccc(OC(F)(F)F)cc3s2)c1` [Compound 103], the IC50 is at most 5 µM.

Consider `N#Cc1cccc(NC(=O)Nc2nc3ccc(Cl)cc3s2)c1` [Compound 42], for which the IC50 is at most 5 µM.

For the molecule `N#Cc1ccc2nc(NC(=O)Nc3cccc(Oc4ccccc4)c3)sc2c1` [Compound 98], the IC50 is at most 5 µM.

On to `N#Cc1ccc(NC(=O)Nc2nc3ccc(Cl)cc3s2)cc1C#N` [Compound 91], for which the half-maximal inhibitory concentration (IC50) is at most 5 µM.

In the case of `CCOC(=O)c1ccc2nc(NC(=O)Nc3cccc(C#N)c3)sc2c1` [Compound 53], the IC50 is at most 5 µM.

Turning to `N#Cc1cccc(NC(=O)Nc2nc3c(s2)CNCC3)c1` [Compound 50], the IC50 is at most 20 µM.

Consider `N#Cc1ccc2nc(NC(=O)Nc3ccc(Cl)c(Cl)c3)sc2c1` [Compound 41], for which the IC50 was at most 5 µM.

Turning to `O=C(Nc1nc2ccc([N+](=O)[O-])cc2s1)Nc1c(Cl)cccc1Cl` [Compound 14], the IC50 is at most 20 µM.

Regarding `N#Cc1ccc(NC(=O)Nc2nc3ccc(C(F)(F)F)cc3s2)cc1C#N` [Compound 13], the IC50 was over 20 µM.

With `N#Cc1cccc(NC(=O)Nc2nc3ccc(C(F)(F)F)cc3s2)c1` [Compound 100], the IC50 was at most 5 µM.

Turning to `COC(=O)c1ccc2nc(NC(=O)Nc3cccc([N+](=O)[O-])c3)sc2c1` [Compound 28], the IC50 was at most 20 µM.

Turning to `Cc1ccc(NC(=O)Nc2nc3ccc(C#N)cc3s2)nc1` [Compound 35], the IC50 is over 20 µM.

Regarding `O=C(Nc1nc2ccccc2s1)Nc1ccc([N+](=O)[O-])cc1Cl` [Compound 9], the half-maximal inhibitory concentration (IC50) is over 20 µM.

Take `N#Cc1cc(Br)cc(NC(=O)Nc2nc3ccc(Cl)cc3s2)c1` [Compound 106]: the IC50 is at most 20 µM.

With `N#Cc1ccc2nc(NC(=O)C3(c4ccccc4)CC3)sc2c1` [Compound 57], the IC50 is over 20 µM.

Consider `COc1cccc(NC(=O)Nc2nc3ccc(C#N)cc3s2)n1` [Compound 68], for which the IC50 was over 20 µM.

On to `N#Cc1ccc(NC(=O)Nc2nc3ccc(Cl)cc3s2)cc1` [Compound 94], for which the IC50 was at most 5 µM.

As for `N#Cc1ccc2nc(NC(=O)Nc3cccc(N4CCOCC4)c3)sc2c1` [Compound 82], the IC50 is at most 20 µM.

For the molecule `N#Cc1cccc(NC(=O)Nc2nc3ccc(C#N)cc3s2)c1` [Compound 66], the IC50 is at most 5 µM.

For the molecule `Cc1ccc(NC(=O)Nc2nc3ccc(Cl)cc3s2)cc1C#N` [Compound 88], the IC50 is at most 20 µM.

As for `N#Cc1ccc2nc(NC(=O)Nc3cccc4ccccc34)sc2c1` [Compound 109], the IC50 was over 20 µM.

Consider `N#Cc1ccc(NC(=O)Nc2nc3ccc(C(F)(F)F)cc3s2)cc1` [Compound 117], for which the IC50 was at most 5 µM.

As for `N#Cc1ccc(NC(=O)Nc2nc3ccc(Cl)cc3s2)cc1C(F)(F)F` [Compound 119], the IC50 was at most 5 µM.

For the molecule `N#Cc1ccc2nc(NC(=O)Nc3cccc(-c4ccc(F)cc4)c3)sc2c1` [Compound 32, 1-(6-cyano-1,3-benzothiazol-2-yl)-3-[3-(4-fluorophenyl)phenyl]urea], the IC50 was at most 5 µM.

Consider `O=C(Nc1ccc([N+](=O)[O-])cc1)Nc1nc2ccc(Cl)cc2s1` [Compound 6], for which the IC50 is at most 5 µM.

Regarding `O=C(Nc1cccc([N+](=O)[O-])c1)Nc1nc2ccc(F)cc2s1` [Compound 10], the IC50 was at most 5 µM.

In the case of `N#Cc1cccc(NC(=O)Nc2nc3ccc([N+](=O)[O-])cc3s2)c1` [Compound 72], the IC50 was at most 5 µM.

Regarding `N#Cc1ccc2nc(NC(=O)Nc3ccccc3C(F)(F)F)sc2c1` [Compound 51], the concentration for half-maximal inhibition (IC50) was at most 20 µM.

For the molecule `N#Cc1ccc2nc(NC(=O)Nc3cccc(C(=O)OCCOCCN)c3)sc2c1` [Compound 112], the half-inhibitory concentration (IC50) was over 20 µM.

Turning to `N#Cc1cccc(NC(=O)Nc2nc3ccc(Cl)cc3s2)c1F` [Compound 95], the IC50 is over 20 µM.

As for `N#Cc1cc(NC(=O)Nc2nc3ccc(Cl)cc3s2)ccc1Br` [Compound 87], the IC50 was at most 5 µM.

Turning to `N#Cc1ccc(NC(=O)Nc2nc3ccc(C(F)(F)F)cc3s2)c(Cl)c1` [Compound 116], the IC50 is at most 5 µM.

`N#Cc1cccc(NC(=O)Nc2nc3ccc(Br)cc3s2)c1` [Compound 74]: the IC50 is at most 5 µM.

With `O=C1N(c2cccc(Cl)c2)CCCN1c1nc2ccc([N+](=O)[O-])cc2s1` [Compound 29], the IC50 is over 20 µM.

Turning to `N#Cc1cccc(NC(=O)Nc2nc3ccccc3s2)c1` [Compound 48], the IC50 is at most 20 µM.

Consider `N#Cc1cc(NC(=O)Nc2nc3ccc(Cl)cc3s2)ccc1Cl` [Compound 85], for which the IC50 is at most 5 µM.

Still in this test, the particulars now being: LN229 cells, read-out: Inhibition of Cancer Cell Growth (IC50).
Turning to `O=C(Nc1ccc(Cl)cc1)Nc1nc2ccc([N+](=O)[O-])cc2s1` [Compound 5], the half-maximal inhibitory concentration (IC50) is at most 5 µM.

With `O=C(Nc1ccc(Cl)cc1)Nc1nc2ccc([N+](=O)[O-])cc2s1` [Compound 18], the IC50 was over 20 µM.

Turning to `N#Cc1ccc2nc(NC(=O)Nc3cccc(OCCOCCN)c3)sc2c1` [Compound 121], the IC50 is over 20 µM.

Source of the values: US11731985B2, “Compositions and methods for treating cancer” (Hb Therapeutics Inc., priority 2018, dated 2023).
